What follows are molecules tested on HBV (assay: HBV-DNA antiviral assay using HepG2.117 cells (intracellular HBV DNA by qPCR)). Conditions: HBV DNA inhibition, 3 days incubation, 2% DMSO.
Assay type: cell-based, genotype D HBV
How it was run: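 Endpoints are intracellular HBV DNA by qPCR (interpolated from a gBlock standard curve) and ATP-based viability in duplicate plates. Doxycycline-free HepG2.117 Tet-off cells received compounds (9 concentrations, 4-fold steps, 2% DMSO) for 3 days. Inhibition normalised to DMSO wells; EC50/EC90/CC50 by curve fitting.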

Row | SMILES | EC50 [nM]
1 | Cc1nn[nH]c1-c1ccc(-n2c(=O)c3c(n4ncc(Cc5ccccc5)c24)CN(C(=O)c2ccc(Br)c(C(F)(F)F)c2)CC3)cc1 [Compound 35, 5-benzyl-12-[4-bromo-3-(trifluoromethyl)benzoyl]-7-[4-(4-methyl-1H-triazol-5-yl)phenyl]-2,3,7,12-tetrazatricyclo[7.4.0.0^2,6]trideca-1(9),3,5-trien-8-one] | < 50
2 | CC(C)Cc1cnn2c3c(c(=O)n(-c4ccc(-c5nncn5C)cc4)c12)C[C@H](C)N(C(=O)c1ccc(Br)c(Cl)c1)C3 [Compound 60b, (11S)-12-(4-bromo-3-chlorobenzoyl)-11-methyl-7-[4-(4-methyl-1,2,4-triazol-3-yl)phenyl]-5-(2-methylpropyl)-2,3,7,12-tetraazatricyclo[7.4.0.0^{2,6}]trideca-1(9),3,5-trien-8-one] | 50 to 500

Same assay, conditions: Hepatitis B virus, 72 h, HBV DNA inhibition, 3 days incubation, 2% DMSO

Row | SMILES | EC50 [nM]
3 | CNC(=O)c1ccc(-n2c(=O)c3c(n4ncc(CC(C)C)c24)CN(C(=O)c2ccc(Br)c(C(F)(F)F)c2)[C@@H](C)C3)cc1 (stereo in doubt) [Compound 50b, N-methyl-4-[rac-(11S)-12-[4-bromo-3-(trifluoromethyl)benzoyl]-5-isobutyl-11-methyl-8-oxo-2,3,7,12-tetrazatricyclo[7.4.0.0^2,6]trideca-1(9),3,5-trien-7-yl]benzamide] | 50 to 500
4 | Cn1nnnc1-c1ccc(-n2c(=O)c3c(n4ncc(Cc5ccccc5)c24)CN(C(=O)c2ccc(Br)c(Cl)c2)CC3)cc1 [Compound 8, 5-benzyl-12-(4-bromo-3-chloro-benzoyl)-7-[4-(1-methyltetrazol-5-yl)phenyl]-2,3,7,12-tetrazatricyclo[7.4.0.0^2,6]trideca-1(9),3,5-trien-8-one] | < 50
5 | Cc1cnn(-c2ccc(-n3c(=O)c4c(n5ncc(CC(C)C)c35)CN(C(=O)c3ccc(Br)c(C(F)(F)F)c3)[C@H](C)C4)cc2)n1 (stereo in doubt) [Compound 99a, rac-(11R)-12-[4-bromo-3-(trifluoromethyl)benzoyl]-5-isobutyl-11-methyl-7-[4-(4-methyltriazol-2-yl)phenyl]-2,3,7,12-tetrazatricyclo[7.4.0.0^2,6]trideca-1(9),3,5-trien-8-one] | < 50
6 | CNC(=O)c1ccc(-n2c(=O)c3c(n4ncc(CC5CC(F)(F)C5)c24)CN(C(=O)c2ccc(Br)c(Cl)c2)CC3)cc1 [Compound 19, 4-[12-(4-bromo-3-chloro-benzoyl)-5-[(3,3-difluorocyclobutyl)methyl]-8-oxo-2,3,7,12-tetrazatricyclo[7.4.0.0^2,6]trideca-1(9),3,5-trien-7-yl]-N-methyl-benzamide] | 50 to 500
7 | C[C@@H]1Cc2c(n3ncc(Cc4ccccc4)c3n(-c3ccc4c(c3)nnn4C)c2=O)CN1C(=O)c1ccc(Br)c(C(F)(F)F)c1 (stereo in doubt) [Compound 72a, rac-(11R)-5-benzyl-12-[4-bromo-3-(trifluoromethyl)benzoyl]-11-methyl-7-(1-methylbenzotriazol-5-yl)-2,3,7,12-tetrazatricyclo[7.4.0.0^2,6]trideca-1(9),3,5-trien-8-one] | < 50
8 | Cc1nnc(-c2ccc(-n3c(=O)c4c(n5ncc(CC(C)C)c35)CN(C(=O)c3ccc(Cl)c(C(F)(F)F)c3)[C@@H](C)C4)cc2)[nH]1 (stereo in doubt) [Compound 65b, rac-(11S)-12-[4-chloro-3-(trifluoromethyl)benzoyl]-5-isobutyl-11-methyl-7-[4-(5-methyl-4H-1,2,4-triazol-3-yl)phenyl]-2,3,7,12-tetrazatricyclo[7.4.0.0^2,6]trideca-1(9),3,5-trien-8-one] | 500 to 5000
9 | Cc1nnnn1-c1ccc(-n2c(=O)c3c(n4ncc(Cc5ccccc5)c24)CN(C(=O)c2ccc(Br)c(C(F)(F)F)c2)[C@@H](C)C3)cc1 (stereo in doubt) [Compound 46b, rac-(11S)-5-benzyl-12-[4-bromo-3-(trifluoromethyl)benzoyl]-11-methyl-7-[4-(5-methyltetrazol-1-yl)phenyl]-2,3,7,12-tetrazatricyclo[7.4.0.0^2,6]trideca-1(9),3,5-trien-8-one] | 50 to 500
10 | CNc1nnc2cc(-n3c(=O)c4c(n5ncc(Cc6ccccc6)c35)CN(C(=O)c3ccc(Br)c(C(F)(F)F)c3)CC4)ccn12 [Compound 30, 5-benzyl-12-[4-bromo-3-(trifluoromethyl)benzoyl]-7-[3-(methylamino)-[1,2,4]triazolo[4,3-a]pyridin-7-yl]-2,3,7,12-tetrazatricyclo[7.4.0.0^2,6]trideca-1(9),3,5-trien-8-one] | < 50
11 | CC[C@H]1Cc2c(n3ncc(Cc4ccccc4)c3n(-c3ccc4c(NC)n[nH]c4c3)c2=O)CN1C(=O)c1ccc(Br)c(C(F)(F)F)c1 (stereo in doubt) [Compound 84b, rac-(11S)-5-benzyl-12-[4-bromo-3-(trifluoromethyl)benzoyl]-11-ethyl-7-[3-(methylamino)-1H-indazol-6-yl]-2,3,7,12-tetrazatricyclo[7.4.0.0^2,6]trideca-1(9),3,5-trien-8-one] | < 50
12 | C[C@@H]1Cc2c(n3ncc(Cc4ccccc4)c3n(-c3ccc(-c4nnn[nH]4)cc3)c2=O)CN1C(=O)c1ccc(Br)c(C(F)(F)F)c1 (stereo in doubt) [Compound 71a, rac-(11R)-5-benzyl-12-[4-bromo-3-(trifluoromethyl)benzoyl]-11-methyl-7-[4-(1H-tetrazol-5-yl)phenyl]-2,3,7,12-tetrazatricyclo[7.4.0.0^2,6]trideca-1(9),3,5-trien-8-one] | 500 to 5000
13 | CNc1n[nH]c2cc(-n3c(=O)c4c(n5ncc(Cc6ccccc6)c35)CN(C(=O)c3ccc(Br)c(C(F)(F)F)c3)[C@@H](C)C4)ccc12 (stereo in doubt) [Compound 43b, rac-(11S)-5-benzyl-12-[4-bromo-3-(trifluoromethyl)benzoyl]-11-methyl-7-[3-(methylamino)-1H-indazol-6-yl]-2,3,7,12-tetrazatricyclo[7.4.0.0^2,6]trideca-1(9),3,5-trien-8-one] | < 50
14 | Cc1nn[nH]c1-c1ccc(-n2c(=O)c3c(n4ncc(CC(C)C)c24)CN(C(=O)c2ccc(Br)c(C(F)(F)F)c2)[C@@H](C)C3)cc1 (stereo in doubt) [Compound 62b, rac-(11S)-12-[4-bromo-3-(trifluoromethyl)benzoyl]-5-isobutyl-11-methyl-7-[4-(4-methyl-1H-triazol-5-yl)phenyl]-2,3,7,12-tetrazatricyclo[7.4.0.0^2,6]trideca-1(9),3,5-trien-8-one] | 50 to 500
15 | Cc1ccn(-c2ccc(-n3c(=O)c4c(n5ncc(CC(C)C)c35)CN(C(=O)c3ccc(Br)c(C(F)(F)F)c3)[C@@H](C)C4)cc2)n1 (stereo in doubt) [Compound 100b, rac-(11S)-12-[4-bromo-3-(trifluoromethyl)benzoyl]-5-isobutyl-11-methyl-7-[4-(3-methylpyrazol-1-yl)phenyl]-2,3,7,12-tetrazatricyclo[7.4.0.0^2,6]trideca-1(9),3,5-trien-8-one] | 500 to 5000
16 | CCC[C@H]1Cc2c(n3ncc(Cc4ccccc4)c3n(-c3ccc4c(NC)n[nH]c4c3)c2=O)CN1C(=O)c1ccc(Br)c(C(F)(F)F)c1 (stereo in doubt) [Compound 88b, rac-(11S)-5-benzyl-12-[4-bromo-3-(trifluoromethyl)benzoyl]-7-[3-(methylamino)-1H-indazol-6-yl]-11-propyl-2,3,7,12-tetrazatricyclo[7.4.0.0^2,6]trideca-1(9),3,5-trien-8-one] | < 50
17 | Cc1nn[nH]c1-c1ccc(-n2c(=O)c3c(n4ncc(CC(C)C)c24)CN(C(=O)c2ccc(Cl)c(C(F)(F)F)c2)[C@@H](C)C3)cc1 (stereo in doubt) [Compound 63b, rac-(11S)-12-[4-chloro-3-(trifluoromethyl)benzoyl]-5-isobutyl-11-methyl-7-[4-(4-methyl-1H-triazol-5-yl)phenyl]-2,3,7,12-tetrazatricyclo[7.4.0.0^2,6]trideca-1(9),3,5-trien-8-one] | 500 to 5000
18 | Cc1nnc(-c2ccc(-n3c(=O)c4c(n5ncc(CC(C)C)c35)CN(C(=O)c3ccc(Br)c(C(F)(F)F)c3)[C@@H](C)C4)cc2)[nH]1 (stereo in doubt) [Compound 59b, rac-(11S)-12-[4-bromo-3-(trifluoromethyl)benzoyl]-5-isobutyl-11-methyl-7-[4-(5-methyl-4H-1,2,4-triazol-3-yl)phenyl]-2,3,7,12-tetrazatricyclo[7.4.0.0^2,6]trideca-1(9),3,5-trien-8-one] | 50 to 500
19 | CNC(=O)c1ccc(-n2c(=O)c3c(n4ncc(CC(C)C)c24)CN(C(=O)c2ccc(Cl)c(C(F)(F)F)c2)[C@@H](C)C3)cc1 (stereo in doubt) [Compound 54b, N-methyl-4-[rac-(11S)-12-[4-chloro-3-(trifluoromethyl)benzoyl]-5-isobutyl-11-methyl-8-oxo-2,3,7,12-tetrazatricyclo[7.4.0.0^2,6]trideca-1(9),3,5-trien-7-yl]benzamide] | 50 to 500
20 | COP(=O)(O)OCN(C)C(=O)c1ccc(-n2c(=O)c3c(n4ncc(CC5CC5)c24)CN(C(=O)c2ccc(Br)c(C(F)(F)F)c2)[C@@H](C)C3)cc1 (racemic) [Compound 107, Methyl [methyl-[4-[rac-(11S)-12-[4-bromo-3-(trifluoromethyl)benzoyl]-5-(cyclopropylmethyl)-11-methyl-8-oxo-2,3,7,12-tetrazatricyclo[7.4.0.0^2,6]trideca-1(9),3,5-trien-7-yl]benzoyl]amino]methyl Hydrogen Phosphate] | > 5000
21 | CNC(=O)c1ccc(-n2c(=O)c3c(n4ncc(CC5CCC5)c24)CN(C(=O)c2ccc(Br)c(C(F)(F)F)c2)[C@@H](C)C3)cc1 (stereo in doubt) [Compound 37b, N-methyl-4-[rac-(11S)-12-[4-bromo-3-(trifluoromethyl)benzoyl]-5-(cyclobutylmethyl)-11-methyl-8-oxo-2,3,7,12-tetrazatricyclo[7.4.0.0^2,6]trideca-1(9),3,5-trien-7-yl]benzamide] | 50 to 500

Reference: patent US11820773B2, “Tricyclic compounds” (ALIGOS THERAPEUTICS, INC., priority 2020, dated 2023)
